Test [1] addresses T1, Na⁺/H⁺ exchanger (Rattus norvegicus, UniProt P26431).
T1 construct: using the vascular smooth muscle cells isolated from the rat thoracic aorta; endogenous in cells; host or cells: primary vascular smooth muscle cells isolated from rat thoracic aorta
Nature of the test: Inhibition of Na⁺/H⁺ exchanger activity in vitro (change in intracellular pH during acid loading). Format: cell-based. As to the method:
That is, inhibition of the Na⁺/H⁺ exchanger activity was evaluated by the change in intracellular pH during acid loading, using the vascular smooth muscle cells isolated from the rat thoracic aorta.

Test [2] addresses T1, Na⁺/H⁺ exchanger. The experiment in a line: Inhibition of Na⁺/H⁺ exchanger activity in vitro (change in cell viability during acid loading). Format: cell-based. The note with it: minimum effective concentration, vascular smooth muscle cells isolated from the rat thoracic aorta. As to the method: The experiment was performed by modifying the method of Mungre et al. described in Exp. Cell Res., 193, 236 (1991). That is, inhibition of the Na⁺/H⁺ exchanger activity was evaluated by the change in cell viability during acid loading, using the vascular smooth muscle cells isolated from the rat thoracic aorta.
The compounds of the present invention shown in Examples were evaluated by the minimum effective concentration (MEC) for the inhibition of the Na⁺/H⁺ exchanger activity.

In test [3] the test system is arrhythmia induced by reperfusion after rat coronary artery occlusion. The experiment in a line: Inhibition of ischemia- and reperfusion-induced arrhythmia in vivo.
Experimental: The experiment was performed by modifying the method of Crome et al. described in J. Cardiovasc. […] That is, the prevention of arrhythmia induced by reperfusion after rat coronary artery occlusion was evaluated by the incidence of ventricular tachycardia and ventricular fibrillation as well as the mortality.
The mark [4] stands for this setting: vascular smooth muscle cells isolated from the rat thoracic aorta, change in intracellular pH during acid loading, read-out: IC₅₀.

Molecules are shown by their SMILES. Where a name gives a salt, the structure may show the parent alone. Read-outs that look alike come from different tables or passages of the source.

T1 sequence (P26431 whole entry): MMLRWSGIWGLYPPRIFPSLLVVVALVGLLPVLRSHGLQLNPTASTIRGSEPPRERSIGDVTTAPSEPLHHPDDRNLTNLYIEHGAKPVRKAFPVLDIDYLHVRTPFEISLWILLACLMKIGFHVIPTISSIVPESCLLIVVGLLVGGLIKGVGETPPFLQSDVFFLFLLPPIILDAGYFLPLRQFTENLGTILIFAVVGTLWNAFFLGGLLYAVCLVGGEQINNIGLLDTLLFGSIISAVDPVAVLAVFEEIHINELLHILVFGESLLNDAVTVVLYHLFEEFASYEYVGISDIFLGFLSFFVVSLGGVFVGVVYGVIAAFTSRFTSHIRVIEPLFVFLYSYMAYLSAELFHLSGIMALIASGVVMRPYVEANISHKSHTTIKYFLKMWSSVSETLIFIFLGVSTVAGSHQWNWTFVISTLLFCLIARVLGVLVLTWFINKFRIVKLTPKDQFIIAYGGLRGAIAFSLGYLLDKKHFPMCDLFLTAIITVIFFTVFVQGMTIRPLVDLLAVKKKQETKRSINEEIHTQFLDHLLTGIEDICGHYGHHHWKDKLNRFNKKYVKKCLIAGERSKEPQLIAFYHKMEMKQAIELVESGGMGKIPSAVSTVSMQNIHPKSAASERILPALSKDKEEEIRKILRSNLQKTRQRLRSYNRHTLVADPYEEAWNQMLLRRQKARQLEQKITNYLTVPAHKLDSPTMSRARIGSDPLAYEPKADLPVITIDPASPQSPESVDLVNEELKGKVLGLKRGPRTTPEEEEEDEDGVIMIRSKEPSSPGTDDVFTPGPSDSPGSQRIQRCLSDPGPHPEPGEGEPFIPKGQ

On to `Cn1c(C(=O)N=C(N)N)cc2c(Cl)ccc(OCCCN)c21` [Example 118, 7-(3-Aminopropoxy)-4-chloro-1-methyl-2-indoloylguanidine hydrochloride], for which the IC50 in test [1] (setting [4]) was determined as 10 nM.

Turning to `Cn1c(C(=O)N=C(N)N)cc2cccc(Cl)c21` [Example 8, 7-Chloro-1-methyl-2-indoloylguanidine hydrochloride], the IC50 in test [1] (setting [4]) is 50 nM.

Regarding `CN(C)c1nc(N)c(C(=O)N=C(N)N)nc1Cl` [Dimethyl amiloride, reference compound], the IC50 in test [1] worked out at 600 nM. In test [2], the “Inhibition of Na^+/H^+ Exchanger MEC” value came to 3.0 µM.

As for `CCN(c1nc(N)c(C(=O)NC(=N)N)nc1Cl)C(C)C` [EIPA, 5-N-ethyl-N-isopropyl amiloride, reference compound], in test [3] (dose 0.3 mg/kg), the “Incidence of Ventricular Fibrillation” value came to 56%, the “Incidence of Ventricular Tachycardia” value turned out to be 100% and the Mortality was 44%. In test [3] (dose 1 mg/kg), the “Incidence of Ventricular Fibrillation” value is recorded as 0%, the “Incidence of Ventricular Tachycardia” value was 43% and the Mortality stood at 0%.

`Cn1c(C(=O)NC(=N)N)cc2c(F)cccc21` [Example 55, 4-Fluoro-1-methyl-2-indoloylguanidine hydrochloride]: the IC50 in test [1] (setting [4]) is 20 nM.

`Cn1c(C(=O)N=C(N)N)cc2ccccc21` [Example 1, 1-methyl-2-indoloylguanidine hydrochloride]: in test [1] (setting [4]), the IC50 was found to be 58 nM. Further, in test [3] (dose 0.1 mg/kg), the “Incidence of Ventricular Fibrillation” value is 10%, the “Incidence of Ventricular Tachycardia” value stood at 70% and the Mortality was 10%. Also, in test [3] (dose 0.3 mg/kg), the “Incidence of Ventricular Fibrillation” value is on record as 0%, the “Incidence of Ventricular Tachycardia” value is listed as 50% and the Mortality was 0%.

As for `COc1cccc2c1cc(C(=O)N=C(N)N)n2C` [Example 22, 4-Methoxy-1-methyl-2-indoloylguanidine hydrochloride], the IC50 in test [1] (setting [4]) was 2100 nM.

In the case of `NC(N)=NC(=O)c1nc(Cl)c(N2CCCCCC2)nc1N` [5-Hexamethylene amiloride, reference compound], the IC50 in test [1] (setting [4]) was determined as 140 nM. Also, the “Inhibition of Na^+/H^+ Exchanger MEC” value in test [2] is 0.3 µM.

In the case of `CC(C)Oc1cccc2c1cc(C(=O)NC(=N)N)n2C` [Example 58, 4-Isopropoxy-1-methy1-2-indoloylguanidine hydrochloride], the “Inhibition of Na^+/H^+ Exchanger MEC” value in test [2] is recorded as 0.3 µM.

For `Cn1c(C(=O)N=C(N)N)cc2c(C(F)(F)F)cccc21` [Example 29, 1-Methyl-4-trifluoromethyl-2-indoloylguanidine hydrochloride], in test [1] (setting [4]), the IC50 was found to be 0.9 nM.

These data come from patent EP0622356A1, “Indoloylguanidine derivatives as inhibitors of sodium-hydrogen exchange” (SUMITOMO PHARMACEUTICALS COMPANY, LIMITED, priority 1993, dated 1994).
